The supplement of paper PMC10307832

Tests used:
Test in all cases: relative viability (nuclei count vs DMSO), 5 days (fraction); higher = more cells survive
[1] = compound: CC1=NN=C(O1)C2=NN=C(C=C2)N3CCC(CC3)OC4=C(C=CC(=C4)F)Cl + O=C(CCCCCCC(=O)Nc1ccccc1)NO [Vorinostat] (partner 1 µM)
Summary of the method: (§1)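 After 5 days of treatment, lung cancer cells in 1536-well plates were fixed and stained in a single step (final 0.05% Triton X-100, 1% formaldehyde, 1 ug/ml Hoechst) and their nuclei counted on 4× images. Treatment had been applied by pin tool the day after seeding as one drug alone or as a fixed anchor-drug dose with five library-drug doses (not always all listed) in √10 steps. Relative viability is the nuclei count of treated wells divided by that of vehicle wells, and values are medians of duplicate plates.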

Tosedostat + Crizotinib = compound: CC(C)C[C@@H](C(=O)N[C@H](C(=O)OC1CCCC1)c1ccccc1)[C@H](O)C(=O)NO [Tosedostat] + C[C@@H](Oc1cc(-c2cnn(C3CCNCC3)c2)cnc1N)c1c(Cl)ccc(F)c1Cl [Crizotinib] (partner 1 µM)
Summary of the method: as §1

Tosedostat + Palbociclib = compound: CC(C)C[C@@H](C(=O)N[C@H](C(=O)OC1CCCC1)c1ccccc1)[C@H](O)C(=O)NO [Tosedostat] + CC(=O)c1c(C)c2cnc(Nc3ccc(N4CCNCC4)cn3)nc2n(C2CCCC2)c1=O [Palbociclib] (partner 0.5 µM)
Summary of the method: as §1

[2] = compound: CC1=NN=C(O1)C2=NN=C(C=C2)N3CCC(CC3)OC4=C(C=CC(=C4)F)Cl + CC(C)C[C@H](NC(=O)[C@H](Cc1ccccc1)NC(=O)c1cnccn1)B(O)O [Bortezomib] (partner 0.002 µM)
Summary of the method: as §1

NCI-H358 was tested, and the relative viability ([1]; first compound 0.253 µM) was 0.405, the relative viability ([1]; first compound 0.8 µM) was 0.341 and the relative viability ([1]; first compound 2.53 µM) was 0.399. The relative viability ([1]; first compound 8 µM) was 0.35, the relative viability (Tosedostat + Crizotinib; first compound 0.02 µM) was 0.725 and the relative viability (Tosedostat + Crizotinib; first compound 0.06325 µM) was 0.458. It also gave a relative viability (Tosedostat + Crizotinib; first compound 0.2 µM) of 0.355, a relative viability (Tosedostat + Crizotinib; first compound 0.6325 µM) of 0.198 and a relative viability (Tosedostat + Crizotinib; first compound 2 µM) of 0.196. It also gave a relative viability (Tosedostat + Palbociclib; first compound 0.02 µM) of 0.141, a relative viability (Tosedostat + Palbociclib; first compound 0.06325 µM) of 0.134 and a relative viability (Tosedostat + Palbociclib; first compound 0.2 µM) of 0.131. The relative viability (Tosedostat + Palbociclib; first compound 0.6325 µM) was 0.137 and the relative viability (Tosedostat + Palbociclib; first compound 2 µM) was 0.136.

NCI-H522 gave a relative viability ([1]; first compound 0.253 µM) of 0.958, a relative viability ([1]; first compound 0.8 µM) of 0.925 and a relative viability ([1]; first compound 2.53 µM) of 0.964. For the same cell line, the relative viability ([1]; first compound 8 µM) was 0.805, the relative viability (Tosedostat + Palbociclib; first compound 0.02 µM) was 0.964 and the relative viability (Tosedostat + Palbociclib; first compound 0.06325 µM) was 0.845. The relative viability (Tosedostat + Palbociclib; first compound 0.2 µM) was 1.02, the relative viability (Tosedostat + Palbociclib; first compound 0.6325 µM) was 1.17 and the relative viability (Tosedostat + Palbociclib; first compound 2 µM) was 0.945.

NCI-H596 gave a relative viability ([1]; first compound 0.253 µM) of 0.474, a relative viability ([1]; first compound 0.8 µM) of 0.564 and a relative viability ([1]; first compound 2.53 µM) of 0.6. It also gave a relative viability ([1]; first compound 8 µM) of 0.567, a relative viability ([2]; first compound 0.8 µM) of 0.85 and a relative viability ([2]; first compound 2.53 µM) of 1.01. For the same cell line, the relative viability ([2]; first compound 8 µM) was 0.713, the relative viability (Tosedostat + Crizotinib; first compound 0.02 µM) was 0.968 and the relative viability (Tosedostat + Crizotinib; first compound 0.06325 µM) was 1.07. For the same cell line, the relative viability (Tosedostat + Crizotinib; first compound 0.2 µM) was 1.13, the relative viability (Tosedostat + Crizotinib; first compound 0.6325 µM) was 1.15 and the relative viability (Tosedostat + Crizotinib; first compound 2 µM) was 0.825.

In the case of NCI-H1299, the relative viability ([2]; first compound 0.253 µM) is reported as 0.935, the relative viability ([2]; first compound 0.8 µM) is reported as 0.911 and the relative viability ([2]; first compound 2.53 µM) is reported as 0.858. It also gave a relative viability ([2]; first compound 8 µM) of 0.807, a relative viability (Tosedostat + Crizotinib; first compound 0.02 µM) of 1.05 and a relative viability (Tosedostat + Crizotinib; first compound 0.06325 µM) of 0.919. The relative viability (Tosedostat + Crizotinib; first compound 0.2 µM) was 0.933, the relative viability (Tosedostat + Crizotinib; first compound 0.6325 µM) was 0.926 and the relative viability (Tosedostat + Crizotinib; first compound 2 µM) was 0.873.

Work on NCI-H1395 yielded a relative viability ([1]; first compound 0.253 µM) of 0.656, a relative viability ([1]; first compound 0.8 µM) of 0.563 and a relative viability ([1]; first compound 2.53 µM) of 0.671. For the same cell line, the relative viability ([1]; first compound 8 µM) was 0.593, the relative viability (Tosedostat + Palbociclib; first compound 0.02 µM) was 0.63 and the relative viability (Tosedostat + Palbociclib; first compound 0.06325 µM) was 0.661. For the same cell line, the relative viability (Tosedostat + Palbociclib; first compound 0.2 µM) was 0.596, the relative viability (Tosedostat + Palbociclib; first compound 0.6325 µM) was 0.709 and the relative viability (Tosedostat + Palbociclib; first compound 2 µM) was 0.596.

For NCI-H1563, the relative viability ([2]; first compound 0.253 µM) was 0.872, the relative viability ([2]; first compound 0.8 µM) was 0.829 and the relative viability ([2]; first compound 2.53 µM) was 0.823. The relative viability ([2]; first compound 8 µM) was 0.934, the relative viability (Tosedostat + Crizotinib; first compound 0.02 µM) was 0.877 and the relative viability (Tosedostat + Crizotinib; first compound 0.06325 µM) was 0.998. For the same cell line, the relative viability (Tosedostat + Crizotinib; first compound 0.2 µM) was 0.893, the relative viability (Tosedostat + Crizotinib; first compound 0.6325 µM) was 1.07 and the relative viability (Tosedostat + Crizotinib; first compound 2 µM) was 0.917.

NCI-H1648 was tested, and the relative viability ([1]; first compound 0.253 µM) was 0.376, the relative viability ([1]; first compound 0.8 µM) was 0.417 and the relative viability ([1]; first compound 2.53 µM) was 0.5. The relative viability ([1]; first compound 8 µM) was 0.513, the relative viability (Tosedostat + Palbociclib; first compound 0.02 µM) was 0.251 and the relative viability (Tosedostat + Palbociclib; first compound 0.06325 µM) was 0.264. The relative viability (Tosedostat + Palbociclib; first compound 0.2 µM) was 0.263, the relative viability (Tosedostat + Palbociclib; first compound 0.6325 µM) was 0.313 and the relative viability (Tosedostat + Palbociclib; first compound 2 µM) was 0.248.

Cell Line NCI-H1703 has a relative viability ([2]; first compound 0.253 µM) of 0.304, a relative viability ([2]; first compound 0.8 µM) of 0.278 and a relative viability ([2]; first compound 2.53 µM) of 0.222. The relative viability ([2]; first compound 8 µM) was 0.218, the relative viability (Tosedostat + Crizotinib; first compound 0.02 µM) was 1.15 and the relative viability (Tosedostat + Crizotinib; first compound 0.06325 µM) was 0.643. For the same cell line, the relative viability (Tosedostat + Crizotinib; first compound 0.2 µM) was 0.548, the relative viability (Tosedostat + Crizotinib; first compound 0.6325 µM) was 0.38 and the relative viability (Tosedostat + Crizotinib; first compound 2 µM) was 0.597.

In the case of NCI-H1792, the relative viability ([2]; first compound 0.253 µM) is reported as 0.405, the relative viability ([2]; first compound 0.8 µM) is reported as 0.423 and the relative viability ([2]; first compound 2.53 µM) is reported as 0.401. The relative viability ([2]; first compound 8 µM) was 0.494, the relative viability (Tosedostat + Crizotinib; first compound 0.02 µM) was 1 and the relative viability (Tosedostat + Crizotinib; first compound 0.06325 µM) was 0.991. For the same cell line, the relative viability (Tosedostat + Crizotinib; first compound 0.2 µM) was 1.04, the relative viability (Tosedostat + Crizotinib; first compound 0.6325 µM) was 0.963 and the relative viability (Tosedostat + Crizotinib; first compound 2 µM) was 1.03. For the same cell line, the relative viability (Tosedostat + Palbociclib; first compound 0.02 µM) was 0.659, the relative viability (Tosedostat + Palbociclib; first compound 0.06325 µM) was 0.634 and the relative viability (Tosedostat + Palbociclib; first compound 0.2 µM) was 0.612. The relative viability (Tosedostat + Palbociclib; first compound 0.6325 µM) was 0.683 and the relative viability (Tosedostat + Palbociclib; first compound 2 µM) was 0.695.

Cell Line NCI-H1793 has a relative viability ([1]; first compound 0.253 µM) of 0.683, a relative viability ([1]; first compound 0.8 µM) of 0.567 and a relative viability ([1]; first compound 2.53 µM) of 0.79. It also gave a relative viability ([1]; first compound 8 µM) of 0.666, a relative viability (Tosedostat + Palbociclib; first compound 0.02 µM) of 0.302 and a relative viability (Tosedostat + Palbociclib; first compound 0.06325 µM) of 0.325. The relative viability (Tosedostat + Palbociclib; first compound 0.2 µM) was 0.339, the relative viability (Tosedostat + Palbociclib; first compound 0.6325 µM) was 0.293 and the relative viability (Tosedostat + Palbociclib; first compound 2 µM) was 0.375.

Work on NCI-H1944 yielded a relative viability ([1]; first compound 0.253 µM) of 0.349, a relative viability ([1]; first compound 0.8 µM) of 0.329 and a relative viability ([1]; first compound 2.53 µM) of 0.427. For the same cell line, the relative viability ([1]; first compound 8 µM) was 0.393, the relative viability (Tosedostat + Crizotinib; first compound 0.02 µM) was 1.11 and the relative viability (Tosedostat + Crizotinib; first compound 0.06325 µM) was 1.01. The relative viability (Tosedostat + Crizotinib; first compound 0.2 µM) was 1.04, the relative viability (Tosedostat + Crizotinib; first compound 0.6325 µM) was 1.08 and the relative viability (Tosedostat + Crizotinib; first compound 2 µM) was 0.942. It also gave a relative viability (Tosedostat + Palbociclib; first compound 0.02 µM) of 0.315, a relative viability (Tosedostat + Palbociclib; first compound 0.06325 µM) of 0.356 and a relative viability (Tosedostat + Palbociclib; first compound 0.2 µM) of 0.386. It also gave a relative viability (Tosedostat + Palbociclib; first compound 0.6325 µM) of 0.32 and a relative viability (Tosedostat + Palbociclib; first compound 2 µM) of 0.377.

Work on NCI-H2170 yielded a relative viability ([1]; first compound 0.253 µM) of 0.449, a relative viability ([1]; first compound 0.8 µM) of 0.366 and a relative viability ([1]; first compound 2.53 µM) of 0.473. For the same cell line, the relative viability ([1]; first compound 8 µM) was 0.362, the relative viability (Tosedostat + Crizotinib; first compound 0.02 µM) was 1.17 and the relative viability (Tosedostat + Crizotinib; first compound 0.06325 µM) was 1.12. For the same cell line, the relative viability (Tosedostat + Crizotinib; first compound 0.2 µM) was 1.19, the relative viability (Tosedostat + Crizotinib; first compound 0.6325 µM) was 1.22 and the relative viability (Tosedostat + Crizotinib; first compound 2 µM) was 1.37. The relative viability (Tosedostat + Palbociclib; first compound 0.02 µM) was 0.399, the relative viability (Tosedostat + Palbociclib; first compound 0.06325 µM) was 0.394 and the relative viability (Tosedostat + Palbociclib; first compound 0.2 µM) was 0.393. The relative viability (Tosedostat + Palbociclib; first compound 0.6325 µM) was 0.406 and the relative viability (Tosedostat + Palbociclib; first compound 2 µM) was 0.393.

NCI-H2342 showed a relative viability ([1]; first compound 0.253 µM) of 0.551, a relative viability ([1]; first compound 0.8 µM) of 0.551 and a relative viability ([1]; first compound 2.53 µM) of 0.583. It also gave a relative viability ([1]; first compound 8 µM) of 0.436, a relative viability (Tosedostat + Palbociclib; first compound 0.02 µM) of 0.536 and a relative viability (Tosedostat + Palbociclib; first compound 0.06325 µM) of 0.507. For the same cell line, the relative viability (Tosedostat + Palbociclib; first compound 0.2 µM) was 0.578, the relative viability (Tosedostat + Palbociclib; first compound 0.6325 µM) was 0.524 and the relative viability (Tosedostat + Palbociclib; first compound 2 µM) was 0.61.

Work on SK-MES-1 yielded a relative viability ([1]; first compound 0.253 µM) of 0.781, a relative viability ([1]; first compound 0.8 µM) of 0.765 and a relative viability ([1]; first compound 2.53 µM) of 0.766. It also gave a relative viability ([1]; first compound 8 µM) of 0.702, a relative viability (Tosedostat + Crizotinib; first compound 0.02 µM) of 1.06 and a relative viability (Tosedostat + Crizotinib; first compound 0.06325 µM) of 0.988. The relative viability (Tosedostat + Crizotinib; first compound 0.2 µM) was 0.983, the relative viability (Tosedostat + Crizotinib; first compound 0.6325 µM) was 0.909 and the relative viability (Tosedostat + Crizotinib; first compound 2 µM) was 0.856. It also gave a relative viability (Tosedostat + Palbociclib; first compound 0.02 µM) of 0.305, a relative viability (Tosedostat + Palbociclib; first compound 0.06325 µM) of 0.3 and a relative viability (Tosedostat + Palbociclib; first compound 0.2 µM) of 0.353. The relative viability (Tosedostat + Palbociclib; first compound 0.6325 µM) was 0.355 and the relative viability (Tosedostat + Palbociclib; first compound 2 µM) was 0.302.

SW 900 showed a relative viability ([1]; first compound 0.8 µM) of 0.287, a relative viability ([1]; first compound 2.53 µM) of 0.418 and a relative viability ([1]; first compound 8 µM) of 0.28. The relative viability (Tosedostat + Palbociclib; first compound 0.02 µM) was 0.446, the relative viability (Tosedostat + Palbociclib; first compound 0.06325 µM) was 0.462 and the relative viability (Tosedostat + Palbociclib; first compound 0.2 µM) was 0.479. It also gave a relative viability (Tosedostat + Palbociclib; first compound 0.6325 µM) of 0.479 and a relative viability (Tosedostat + Palbociclib; first compound 2 µM) of 0.466.
